Laboratory results reported in ChEMBL document CHEMBL1139086, “Synthesis, characterization, antibacterial activity, and interaction with DNA of the vanadyl-enrofloxacin complex” (2007).
Converted amounts (≈) assume the structure as drawn.

Key:
Format in all cases: functional
Pseudomonas aeruginosa = assay: Antimicrobial activity against Pseudomonas aeruginosa
Escherichia coli = assay: Antimicrobial activity against Escherichia coli
Staphylococcus aureus = assay: Antimicrobial activity against Staphylococcus aureus

## CCN1CCN(c2cc3c(cc2F)c(=O)c(C(=O)O)cn3C2CC2)CC1 [ENROFLOXACIN]
Pseudomonas aeruginosa
  MIC: 1 µg/mL (≈ 2.78 µM)
Escherichia coli
  MIC: 1 µg/mL (≈ 2.78 µM)
Staphylococcus aureus
  MIC: 8 µg/mL (≈ 22.3 µM)
